Assay results as given in patent US20120095739A1, “METHOD FOR DETERMINING THE EFFICACY OF A COMBINATION THERAPY” (priority 2009, published 2012).

System: HIV-1
Details: double robust estimation; for Weight (drug weight, PI): difference in viral load response (log scale) vs lopinavir after 8 weeks of stable treatment
Description: Therefore, statistical models were applied to handle these differences. […] E.g.

| Substance | Weight (drug weight, PI) | difference in viral load change vs patients taking lopinavir (after 8 weeks of stable treatment) |
| --- | --- | --- |
| lopinavir [LPV/r] | 0 | – |
| atazanavir [ATV/r] | −0.02 | −0.02 log viral load |
